This passage reports selectivity ratio, Activity and IC50 results from ChEMBL document CHEMBL1153303, “Iodine-catalyzed one-pot synthesis and antimalarial activity evaluation of symmetrically and asymmetrically substituted 3,6-diphenyl[1,2,4,5]tetraoxanes” (Bioorg Med Chem Lett, 2009).

Data set [1] can be described thus: Selectivity index, ratio of IC50 for african green monkey (Cercopithecus aethiops) Vero cells to IC50 for Plasmodium falciparum D6. Type of data set: toxicity, cell-based. The conditions noted are these: read-out: Ratio IC50.
The nature of data set [2]: Selectivity index, ratio of IC50 for african green monkey (Cercopithecus aethiops) Vero cells to IC50 for Plasmodium falciparum W2. Type of data set: toxicity, cell-based. The conditions noted are these: read-out: Ratio IC50.
In the next data set the test system is Vero. Nature of the data set: Cytotoxicity against african green monkey Vero cells up to 16.72 uM after 72 hrs by neutral red assay. Type of data set: cell-based. The conditions noted are these: chlorocebus sabaeus.
In data set [3] the test system is Plasmodium falciparum. The data set is described as follows: Antimalarial activity against chloroquine-sensitive Plasmodium falciparum D6 in erythrocytes after 72 hrs by LDH activity. Type of data set: functional, organism-based. The conditions noted are these: D6, 72 h.
Data set [4] relates to Plasmodium falciparum. The data set is described as follows: Antimalarial activity against chloroquine-resistant Plasmodium falciparum W2 in erythrocytes after 72 hrs by LDH activity. Format: functional, organism-based. The conditions noted are these: W2, 72 h.

Molecules are shown by their SMILES.

`CCCc1ccc(C2OOC(c3ccc(CCC)cc3)OO2)cc1` (stereo not drawn): the selectivity ratio in data set [1] was more than 23.8; in data set [2], more than 19. Further, in the data set with Vero, the Activity entry is recorded as “Non-toxic”.
As for `CC(C)(C)c1ccc(C2OOC(c3ccc(C(C)(C)C)cc3)OO2)cc1` (stereo not drawn), the selectivity ratio in data set [1] is more than 6.1; in data set [2] it was more than 3.4. Further, the Activity entry in the data set with Vero is “Non-toxic”.
`COC(=O)c1ccc(C2OOC(c3ccc(C)cc3)OO2)cc1` (stereo not drawn): the results for the IC50 with Plasmodium falciparum [3] and with Plasmodium falciparum [4] were 3790 nM and 6010 nM, respectively. Further, the figures for the selectivity ratio in data set [1] and in data set [2] were more than 4 and more than 2.5, respectively. In addition, the Activity entry in the data set with Vero is “Non-toxic”.
`CCc1ccc(C2OOC(c3ccc(CC)cc3)OO2)cc1` (stereo not drawn) had an IC50 with Plasmodium falciparum [3] of 990 nM. The selectivity ratio in data set [1] and in data set [2] was more than 15.9 each time. Also, the Activity entry with Vero is recorded as “Non-toxic”.
For `COc1ccc(C2OOC(c3ccc(C)cc3)OO2)cc1` (stereo not drawn), the selectivity ratio in data set [1] is more than 21.6; in data set [2], more than 15.4. Further, the Activity result in the data set with Vero is recorded as “Non-toxic”.
For `Cc1ccc(C2OOC(c3ccc(C(C)C)cc3)OO2)cc1` (stereo not drawn) the same measures were more than 26.4, more than 20.7 and “Non-toxic”.
For `CCCCc1ccc(C2OOC(c3ccc(CCCC)cc3)OO2)cc1` (stereo not drawn) the same measures were more than 3.7, more than 2.8 and “Non-toxic”.
The corresponding values for `CCc1ccc(C2OOC(c3ccc(C)cc3)OO2)cc1` (stereo not drawn) are more than 43.6, more than 36.7 and “Non-toxic”.
Take `C[C@@H]1CC[C@H]2[C@@H](C)C(=O)O[C@@H]3O[C@@]4(C)CC[C@@H]1[C@]32OO4` [ARTEMISININ]: the values for the selectivity ratio in data set [1] and in data set [2] were more than 476 and more than 1400, respectively. This compound also registered an IC50 in the data set on Plasmodium falciparum [4] of 15 nM. Also, the Activity result in the data set with Vero was “Non-toxic”.
For `CCN(CC)CCCC(C)Nc1ccnc2cc(Cl)ccc12` (stereo not drawn) [CHLOROQUINE], the Activity entry with Vero is “Non-toxic”.
As for `Cc1ccc(C2OOC(c3ccc(C(C)(C)C)cc3)OO2)cc1` (stereo not drawn), the selectivity ratio in data set [1] was more than 25.1; in data set [2] it was more than 19. Further, the Activity result in the data set on Vero is listed as “Non-toxic”.
The corresponding values for `CC(C)c1ccc(C2OOC(c3ccc(C(C)C)cc3)OO2)cc1` (stereo not drawn) are more than 21.6, more than 14 and “Non-toxic”.

One may read the IC50 as the concentration that inhibits the measured activity by half.
